Patent publication EP4685153A1 (priority 2023, dated 2024)
Residues, ends and D or L forms follow the SMILES beside them. *: point of attachment. Succinyl(4-O-cholesteryl) = CC(C)CCC[C@@H](C)[C@H]1CC[C@H]2[C@@H]3CC=C4C[C@@H](OC(=O)CCC(=O)*)CC[C@]4(C)[C@H]3CC[C@]12C

Test system: SARS-CoV-2 D614G mutant strain
Conditions: 48 h

| SMILES | IC50 [nM] |
| --- | --- |
| CC[C@H](C)[C@H](NC(=O)[C@H](CCCCN)NC(=O)[C@H](CCCCN)NC(=O)[C@H](CCC(=O)O)NC(=O)[C@H](CC(C)C)NC(=O)[C@H](CCC(=O)O)NC(=O)[C@H](CCC(=O)O)NC(=O)[C@H](CC(C)C)NC(=O)[C@H](CCC(=O)O)NC(=O)[C@H](CCCCN)NC(=O)[C@H](CCC(=O)O)NC(=O)[C@H](Cc1ccc(O)cc1)NC(=O)[C@H](CCC(=O)O)NC(C)=O)C(=O)N[C@@H](CCC(=O)O)C(=O)N[C@@H](CCC(=O)O)C(=O)N[C@@H](CC(C)C)C(=O)N[C@@H](CC(C)C)C(=O)N[C@@H](CCCCN)C(=O)N[C@@H](CCCCN)C(=O)N[C@@H](C)C(=O)N[C@@H](CCC(=O)O)C(=O)N[C@@H](CCC(=O)O)C(=O)N[C@@H](CCC(N)=O)C(=O)N[C@@H](CCC(N)=O)C(=O)N[C@@H](CCCCN)C(=O)N[C@@H](CCCCN)C(=O)N[C@@H](CC(N)=O)C(=O)N[C@@H](CCC(=O)O)C(=O)N[C@@H](C)C(=O)N[C@@H](C)C(=O)N[C@@H](C)C(=O)N[C@@H](CCCCN)C(=O)N[C@@H](CCCCNC(=O)CCC(=O)O[C@H]1CC[C@@]2(C)C(=CC[C@H]3[C@@H]4CC[C@H]([C@H](C)CCCC(C)C)[C@@]4(C)CC[C@@H]32)C1)C(N)=O [LP-128] (Ac-EYEKELEELEKKIEELLKKAEEQQKKNEAAAKK(Succinyl(4-O-cholesteryl))-NH2) | 25.1 |
| CC[C@H](C)[C@H](NC(=O)[C@H](CCCCN)NC(=O)[C@H](CCCCN)NC(=O)[C@H](CCC(=O)O)NC(=O)[C@H](CC(C)C)NC(=O)[C@H](CCC(=O)O)NC(=O)[C@H](CCC(=O)O)NC(=O)[C@H](CC(C)C)NC(=O)[C@H](CCC(=O)O)NC(=O)[C@H](CCCCN)NC(=O)[C@H](CCC(=O)O)NC(=O)[C@H](Cc1ccc(O)cc1)NC(=O)[C@H](CCC(=O)O)NC(=O)[C@H](CCC(=O)O)NC(=O)[C@H](Cc1ccc(O)cc1)NC(=O)[C@H](CCC(=O)O)NC(C)=O)C(=O)N[C@@H](CCC(=O)O)C(=O)N[C@@H](CCC(=O)O)C(=O)N[C@@H](CC(C)C)C(=O)N[C@@H](CC(C)C)C(=O)N[C@@H](CCCCN)C(=O)N[C@@H](CCCCN)C(=O)N[C@@H](C)C(=O)N[C@@H](CCC(=O)O)C(=O)N[C@@H](CCC(=O)O)C(=O)N[C@@H](CCC(N)=O)C(=O)N[C@@H](CCC(N)=O)C(=O)N[C@@H](CCCCN)C(=O)N[C@@H](CCCCN)C(=O)N[C@@H](CC(N)=O)C(=O)N[C@@H](CCC(=O)O)C(=O)N[C@@H](C)C(=O)N[C@@H](C)C(=O)N[C@@H](C)C(=O)N[C@@H](CCCCN)C(=O)N[C@@H](CCCCNC(=O)CCC(=O)O[C@H]1CC[C@@]2(C)C(=CC[C@H]3[C@@H]4CC[C@H]([C@H](C)CCCC(C)C)[C@@]4(C)CC[C@@H]32)C1)C(N)=O [LP-127] (Ac-EYEEYEKELEELEKKIEELLKKAEEQQKKNEAAAKK(Succinyl(4-O-cholesteryl))-NH2) | 27.4 |
